These results are taken from paper PMC9014415, “Repositioning of a Diaminothiazole Series Confirmed to Target the Cyclin-Dependent Kinase CRK12 for Use in the Treatment of African Animal Trypanosomiasis” (Journal of Medicinal Chemistry, 2022).

Each structure is given as a SMILES string.

Data set [1] is described as follows: Mouse hepatocyte stability. Type of data set: in vitro ADME. The note with it: intrinsic clearance.
For data set [2], the system named is MAP kinase 9, putative (MAPK9). Kind of data set: SILAC pull-down with resin-bound 13, competition by compound 2. Type of data set: binding, Trypanosoma brucei. The note with it: procyclic lysate; compound 2 10 μM vs DMSO; mean of three experiments. On the procedure:
(§1) Chemical proteomic studies were carried out by immobilizing an analogue of compound 2 (probe 13; Figure 3A and Scheme 4) to magnetic beads via a polyethyleneglycol (PEG) linker. Appropriate attachment sites for the PEG linker were informed by the established structure–activity relationships within this series, and an advanced intermediate toward the final derivatized compound was screened against both bloodstream and procyclic forms of T. brucei to ensure that it retained potency. The analogue was immobilized by attachment to NHS-ester-activated paramagnetic beads. Activated beads were then incubated in SILAC (stable isotope labeling by amino acids in cell culture)-labeled T. brucei procyclic whole-cell lysates in the presence or absence of compound 2 (10 μM) with either “light-“ or “heavy”-labeled lysate. After combining the eluates from the beads and performing proteomic analyses, proteins that bound specifically to the diaminothiazole pharmacophore were distinguished from proteins that bound non-specifically to the beads by virtue of compound 2:DMSO tryptic peptide isotope ratios. As a result of these studies, four kinases and a cyclin were identified as specific binders of the compound 2-derivatized beads (Figure 3B and Table S11). It should be noted that of the four kinases identified, only CRK12 has been established as essential for survival of T. brucei.[14] […]
(§2) Trypanosoma brucei procyclic form parasites were grown in SDM-79 media (SILAC SDM-79, 2 g/L NaHCO3, 7.5 mg haemin, 1% glutamax and 15% dialysed FBS) with either light or heavy isotopes for 6-9 divisions (6 days) to a density of ~3 x 10^7 cells/ml. A total of 3 x10^8 cells were washed thrice with PBS. Buffer 1 (0.1 mM tosyl phenylalanyl chloromethyl ketone, 1 µg/ml leupeptin, 1 mM aprotinin, 1 mM phenylmethylsulfonyl fluoride, 1x Roche Complete protease inhibitors) was added to the parasite pellet, followed by Buffer 2 (100 mM Tris pH 7.5, 10% glycerol, 300 mM NaCl, 3 mM MgCl2, 1.6% IGEPAL® CA-630, 2 mM dithiothreitol) and incubated at 4 °C for 20 min. Lysates were centrifuged at 100,000 g at 4 °C for 1 h. Beads (blank and compound-bound) were washed twice with water and twice with lysis buffer (Buffer 1 and 2). Lysates were incubated with 2 mg blank beads for 30 min at 4 °C. Lysates were then incubated with either 10 µM DDD00770675 or 1% DMSO for 30 min at 4 °C. Finally, lysates were incubated with 2 mg of bound compound for 1 h at 4 °C. Beads were washed three times with wash buffer (0.5% IGEPAL® CA-630, 50 mM Tris pH 8.0, 5 mM EDTA, 1 mg/ml BSA) and twice with Tris-buffered saline. Samples were combined, run 1.5 cm into a Brs-TRIS 10% acrylamide gel and stained with Coomassie quick reagent for 1 h. Gel bands were subjected to in-gel reduction with 10 mM dithiothreitol, alkylation with 50 mM iodoacetamide and digestion with 12.5 μg/mL trypsin (Pierce) for >16h at 37°C. Recovered tryptic peptides were vacuum […]
(§3) 4.5 Peptide fractionation and LC-MS/MS analysis
(§4) Peptides were fractionated using High pH RP Chromatography. A C18 Column from Waters (XBridge peptide BEH, 130Å, 3.5 µm 2.1 x 150 mm, Waters, Ireland) with a guard column (XBridge, C18, 3.5 µm, 2.1 ×10 mm, Waters) were used on a Ultimate 3000 HPLC (Thermo-Scientific). Buffers A and B used for fractionation consist, respectively, of (A) 10mM ammonium formate in milliQ water pH 9.5 and (B) 10 mM ammonium formate, pH 9.5 in 90% acetonitrile. Fractions were collected using a WPS-3000FC auto-sampler (Thermo-Scientific) at 1 min intervals. Column and guard column were equilibrated with 2% Buffer B for twenty minutes at a constant flow rate of 0.2 mL/min. Peptides (190 µL) were injected onto the column, and the separation gradient was started 1 min after sample was loaded onto the column. Peptides were eluted from the column with a gradient of 2% Buffer B to 60% Buffer B in 53 min. The column was washed for 15 min in 100% Buffer B and equilibrated at […]
(§5) 2% Buffer B for 20 min. […]

The subject of the next data set is MAP kinase 6 (MAPK6). Described as above. The note with it: procyclic lysate; compound 2 10 μM vs DMSO; mean of three experiments. Type of data set: binding, Trypanosoma brucei. On the procedure:
as §1, §2, §3, §4, §5

Data set [3] concerns Inositol polyphosphate kinase-like protein (IPPK). The data set is described as above. Type of data set: binding, Trypanosoma brucei. The note with it: procyclic lysate; compound 2 10 μM vs DMSO; mean of three experiments. On the procedure: as §1, §2, §3, §4, §5
In a further data set the test system is Cyclin 9 (CYC9). The description is as above. The note with it: procyclic lysate; compound 2 10 μM vs DMSO; mean of three experiments. Type of data set: binding, Trypanosoma brucei. On the procedure: as §1, §2, §3, §4, §5
The test system of data set [4] is Cdc-2 related kinase 11 (CRK11). The description is as above. Type of data set: binding, Trypanosoma brucei. The note with it: procyclic lysate; compound 2 10 μM vs DMSO; mean of three experiments. On the procedure: as §1, §2, §3, §4, §5
Data set [5] relates to Cdc2-related kinase 12 (CRK12). Described as above. Type of data set: binding, Trypanosoma brucei. The note with it: procyclic lysate; compound 2 10 μM vs DMSO; mean of three experiments. As to the method: as §1, §2, §3, §4, §5
A further data set relates to MAP kinase 4 (MAPK4). The data set is described as above. Type of data set: binding, Trypanosoma brucei. The note with it: procyclic lysate; compound 2 10 μM vs DMSO; mean of three experiments. As to the method:
as §1, §2, §3, §4, §5

For `CC(C)CS(=O)(=O)N[C@H]1CC[C@H](Nc2nc(N)c(C(=O)c3c(F)cccc3F)s2)CC1` [Compound 1, N-((trans)-4-((4-Amino-5-(2,6-difluorobenzoyl)thiazol-2-yl)amino)cyclohexyl)-2-methylpropane-1-sulfonamide], the “Mouse Hepatocyte Cli” value in data set [1] is on record as 5.9 mL/min/g.

With `CC(C)CS(=O)(=O)N[C@H]1CC[C@H](Nc2nc(N)c(C(=O)c3c(F)cc(CN(C)C)cc3F)s2)CC1` [Compound 2, N-(trans)-[4-[[4-Amino-5-[4-(dimethylaminomethyl)-2,6-difluoro-benzoyl]thiazol-2-yl]amino]cyclohexyl]-2-methyl-propane-1-sulfonamide], the “Log2 ratio DMSO/compound” value in data set [2] amounted to 4.15; in the data set on MAP kinase 6 (MAPK6), 1.62; in data set [3], 1.85; in the data set on Cyclin 9 (CYC9) it was 3.16; in data set [4], 3.57; in data set [5], 3.47. The “Log2 ratio DMSO/compound” value in the data set with MAP kinase 4 (MAPK4) turned out to be 2.84.
